From patent US5654411A, “Process for preparing 4-deoxyerythromycin derivatives” (Abbott Laboratories, priority 1995, dated 1997)

System: smooth muscle strips isolated from rabbit small intestine
Test: Induction of in vitro rabbit duodenal smooth muscle contraction
Settings: for EC50: Oryctolagus cuniculus, rabbit duodenum longitudinal muscle, 37° C., pH 7.5, read-out: pED50 (negative logarithm of the concentration producing half of the maximal contraction) (converted); for Relative Potency: relative to erythromycin A = 1.0
Procedure: The compounds of the present invention were tested in vitro for their ability to induce contraction of smooth muscle strips isolated from rabbit small intestine using the following procedure:
Rabbits were sacrificed and 15 cm of duodenum was rapidly removed and placed in ice-cold modified Ringers solution (120 mM sodium chloride, 25 mM sodium bicarbonate, 4.7 mM potassium chloride, 1.25 mM calcium chloride, 1.20 mM magnesium sulfate and 5.6 mM glucose). The longitudinal muscle layer was separated from the circular muscle by blunt dissection and cut into strips of 10×20 mm. Double-folded strips were vertically suspended between two hooks in 10 mL tissue baths with a mechanical preload of 1 g. The upper hook was connected to an […] force transducer, and its displacement was recorded on a Grass polygraph. The tissue baths contained modified Ringers solution at 37° C. and were continuously gassed with 95% oxygen/5% carbon dioxide in order to maintain the pH at 7.5.
After a stabilization period of at least 60 minutes, a contractility dose-response series was performed by adding increasing final concentrations of methacholine (10^-7 M, 10^-6 M and 10^-5 M) in volumes of 100 μL. The bath solutions were replaced at least three times between doses.
After the methacholine dose-response series was completed, a test compound dose response curve was initiated by the same procedure used for the methacholine dose-response series, with at least five concentrations of test compound within the range of 10^-10 M to 10^-4 M. The tissues were washed repeatedly between doses, and the studies were completed by recording the contractile response to 10^-5 M methacholine to ascertain integrity of the muscle preparation. Contractile responses were expressed as percent of maximal contraction. The concentration of test compound which produces half of the maximal contraction (ED50 value) and the negative logarithm of the ED50 value (PED50) were estimated from the dose-response curves.

Compound	EC50	Relative Potency
CC[C@H]1OC(=O)[C@H](C)[C@@H](O[C@H]2C[C@@](C)(OC)C[C@H](C)O2)[C@H](C)[C@@H](O[C@@H]2O[C@H](C)C[C@H](NC)[C@H]2O)[C@@]2(C)C[C@@H](C)C(O2)[C@H](C)[C@@H](O)[C@]1(C)O [Example 14, 9-Deoxo-4',6-Dideoxy-3'-N-Desmethyl-6,9-Epoxyerythromycin A]	70.8 nM	20
CC[C@H]1OC(=O)[C@H](C)[C@@H](O[C@H]2C[C@@](C)(OC)C[C@H](C)O2)[C@H](C)[C@@H](O[C@@H]2O[C@H](C)C[C@H](NC)[C@H]2O)[C@@]2(C)CC(C)=C(O2)[C@H](C)[C@@H](O)[C@]1(C)O [Example 3, 8,9-anhydro-4"-deoxy-3'-N-desmethyl erythromycin A-6,9-hemiketal]	0.182 nM	7,762
CC[C@H]1OC(=O)[C@H](C)[C@@H](O[C@H]2C[C@@](C)(OC)[C@@H](O)[C@H](C)O2)[C@H](C)[C@@H](O[C@@H]2O[C@H](C)C[C@H](N(C)C)[C@H]2O)[C@](C)(O)C[C@@H](C)C(=O)[C@H](C)[C@@H](O)[C@]1(C)O [erythromycin A, reference compound]	1410 nM	–
C#CC[N+](C)(C)[C@H]1C[C@@H](C)O[C@@H](O[C@@H]2[C@@H](C)[C@H](O[C@H]3C[C@@](C)(OC)C[C@H](C)O3)[C@@H](C)C(=O)O[C@H](CC)[C@@](C)(O)[C@H](O)[C@@H](C)C3=C(C)C[C@@]2(C)O3)[C@@H]1O [Example 5, 8,9-anhydro-4"-deoxy-3'-N-propargylerythromycin A-6,9-hemiketal bromide]	22.9 nM	62
CC[C@H]1OC(=O)[C@H](C)[C@@H](O[C@H]2C[C@@](C)(OC)C[C@H](C)O2)[C@H](C)[C@@H](O[C@@H]2O[C@H](C)C[C@H](NC)[C@H]2O)[C@@]2(C)C[C@H](C)C(O2)[C@H](C)[C@@H](O)[C@]1(C)O [Example 10, 9-deoxo-3'-N-desmethyl-4",6-dideoxy-8-epi-6,9-epoxyerythromycin A]	17.8 nM	79
CC[C@H]1OC(=O)[C@H](C)[C@@H](O[C@H]2C[C@@](C)(OC)C[C@H](C)O2)[C@H](C)[C@@H](O[C@@H]2O[C@H](C)C[C@H](N(C)CC)[C@H]2O)[C@@]2(C)CC(C)=C(O2)[C@H](C)[C@@H](O)[C@]1(C)O [Example 4, 8,9-anhydro-4"-deoxy-3'-N-desmethyl-3'-N-ethylerythromycin A-6,9-hemiketal]	0.00316 nM	199,526
CC[C@H]1OC(=O)[C@H](C)[C@@H](O[C@H]2C[C@@](C)(OC)C[C@H](C)O2)[C@H](C)[C@@H](O[C@@H]2O[C@H](C)C[C@H](N(C)C)[C@H]2O)[C@@]2(C)CC(C)=C(O2)[C@H](C)[C@@H](O)[C@]1(C)O [Example 1, 8,9-Anhydro-4"-deoxyerythromycin A-6,9-hemiketal]	3.89 nM	363
